# Reference: patent US12161656B2 (MELINTA SUBSIDIARY CORP., priority 2010, dated 2024)
# Read-outs that look alike come from different tables or passages of the source.
# Tests used:
# [1] = Source text: The solubility of four non-dimethlyamino tetracyclines, with and without Mg^2+, was examined.
# [2] = system: rabbit red blood cells (RBCs); assay: In vitro hemolysis of rabbit red blood cells (in vitro model of venous phlebitis), Example 8; conditions: Table 29, rabbit RBCs, 2.5 mg/ml minocycline solution, different molar ratios cation:minocycline
# [3] = system: Human umbilical vein endothelial cells (HUVEC); assay: Uptake of minocycline in HUVEC at various Mg/minocycline ratios (LCMS), Example 12; type: cell-based; conditions: 1 mg/mL in saline, 30 min, Mg/minocycline ratios 0-25, FIGS. 6 and 7
# Experimental: Cells and reagents: Human umbilical vein endothelial cells (HUVEC) were purchased from Lonza and maintained according to manufacturer's recommendations in EGM-2 media. A 10 mg/mL solution of minocycline was prepared in 13.6 mg/mL Na-acetate without addition of Mg. This stock solution was further diluted in saline to 1 mg/mL with addition of Mg in the form of 1 M MgSO4 to generate the following molar ratios of Mg to minocycline: 0, 1, 2.5, 5, 10, 25.
# Uptake experimental conditions: HUVECs were seeded at 4.5×10^5 cells/well density in 6-well plates in EGM-2 media. Two days after seeding, cells were washed once with 2 mL of saline, and then 2 mL of 1 mg/mL drug solution in saline prepared as described above was placed in each well in triplicate. Plates were incubated in a CO2 incubator at 37° C. for 30 min. Drug solutions were aspirated and cells were washed once with 2 mL of saline. 0.5 mL of saline was placed in each well and the cell monolayer was scraped using a plastic cell scraper. Cell suspensions were transferred to 1.5 mL plastic tubes and sonicated for 30 sec at maximal power. Cell lysates were spun down for 10 min on a table top microcentrifuge at maximum speed and supernatants were collected. […]
# [4] = system: rabbit red blood cells (RBCs)
compound,measurement,setting,value
CN(C)[C@@H]1C(O)=C(C(N)=O)C(=O)[C@@]2(O)C(O)=C3C(=O)c4c(O)cccc4[C@@](C)(O)[C@H]3[C@H](O)[C@@H]12 [oxytetracycline],solubility (text summary of Table 36),[1],"remains insoluble in the presence of divalent cations, such as Mg^2+, at low pH"
Triton-x,Hemolysis of RBCs in solution relative to water,[2],97.82%
CN(C)c1ccc(O)c2c1C[C@H]1C[C@H]3[C@H](N(C)C)C(O)=C(C(N)=O)C(=O)[C@@]3(O)C(O)=C1C2=O [Minocycline],intracellular uptake of minocycline,[3],"decrease in intracellular uptake of minocycline is observed as the concentration of a divalent cation, such as Mg^2+ increases"
C[C@H]1c2cccc(O)c2C(=O)C2=C(O)[C@]3(O)C(=O)C(C(N)=O)=C(O)[C@@H](N(C)C)[C@@H]3[C@@H](O)[C@@H]21 [Doxycycline],solubility (text summary of Table 36),[1],"is soluble in the absence of divalent cations, such as Mg^2+, but is insoluble in the presence of divalent cations at low pH"
"C[C@@H]1[C@H](O)[C@@H](C)/C=C/C=C/C=C/C=C/C=C/C=C/C=C/[C@H](O[C@@H]2O[C@H](C)[C@@H](O)[C@H](N)[C@@H]2O)C[C@@H]2O[C@](O)(C[C@@H](O)C[C@@H](O)[C@H](O)CC[C@@H](O)C[C@@H](O)CC(=O)O[C@H]1C)C[C@H](O)[C@H]2C(=O)O [Amphoterin B, Amphotericin B]",Hemolysis of RBCs in solution relative to water,[4],101.31%
same,Hemolysis of RBCs in solution relative to water,[4]; pH 5.85,101.31%
